Where two headings read alike, the source gives them in different places. *1 amine or outer side, *2 acyl side, *3 side chain or, on linkers, in order; H or OH if unused. Where a SMILES comes first, the peptide text is derived from it. Bridges are numbered along the chain shown (N, C = ends). [ ]: non-standard residue; d: D form. The star is where a group is joined. X2 = O=C1NC(=O)C([*:3])=C1CC[C@H](N[*:1])C(=O)[*:2]; X3 = NCCNCC(CNCCN)C(=O)*; Hexanoyl = CCCCCC(=O)*
Key:
Recombinant human FAP = target: T1, Recombinant human FAP (Homo sapiens, UniProt Q12884); assay: FRET-based FAP protease activity assay; type: biochemical
T1 construct: purchased R&D systems 3715-SE
T1 sequence (Q12884 26-760 limits assumed): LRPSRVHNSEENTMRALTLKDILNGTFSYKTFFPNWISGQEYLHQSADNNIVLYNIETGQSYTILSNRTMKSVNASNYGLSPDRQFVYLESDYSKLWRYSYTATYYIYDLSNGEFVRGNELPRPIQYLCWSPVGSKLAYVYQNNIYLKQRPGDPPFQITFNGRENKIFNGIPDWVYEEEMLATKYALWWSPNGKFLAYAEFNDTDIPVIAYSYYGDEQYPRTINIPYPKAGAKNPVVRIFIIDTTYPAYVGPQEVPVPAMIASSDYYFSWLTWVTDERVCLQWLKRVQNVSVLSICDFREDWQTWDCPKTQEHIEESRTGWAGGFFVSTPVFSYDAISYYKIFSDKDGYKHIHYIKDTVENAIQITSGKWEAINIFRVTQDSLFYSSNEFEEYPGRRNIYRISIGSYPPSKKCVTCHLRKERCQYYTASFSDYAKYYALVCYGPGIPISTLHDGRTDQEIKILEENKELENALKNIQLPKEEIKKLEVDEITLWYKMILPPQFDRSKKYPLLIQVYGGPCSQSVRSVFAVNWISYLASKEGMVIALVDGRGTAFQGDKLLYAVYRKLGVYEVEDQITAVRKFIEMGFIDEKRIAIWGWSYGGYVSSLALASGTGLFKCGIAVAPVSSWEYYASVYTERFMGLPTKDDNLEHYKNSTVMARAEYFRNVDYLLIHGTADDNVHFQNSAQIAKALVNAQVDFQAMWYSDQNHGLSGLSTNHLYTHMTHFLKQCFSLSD

[1] = target: T2, FAP-expressing human WI-38 fibroblasts (Homo sapiens, UniProt Q12884); assay: Competitive FACS binding assay;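 also: flow cytometry read-out of median Cy5 fluorescence on the cells, plotted versus test compound concentration, with IC50 derived by four-parameter logistic curve fitting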
T2 construct: FAP-expressing human WI-38 fibroblasts (ECACC) were cultured in EMEM; host or cells: WI-38 human fibroblasts
T2 sequence (Q12884 whole entry): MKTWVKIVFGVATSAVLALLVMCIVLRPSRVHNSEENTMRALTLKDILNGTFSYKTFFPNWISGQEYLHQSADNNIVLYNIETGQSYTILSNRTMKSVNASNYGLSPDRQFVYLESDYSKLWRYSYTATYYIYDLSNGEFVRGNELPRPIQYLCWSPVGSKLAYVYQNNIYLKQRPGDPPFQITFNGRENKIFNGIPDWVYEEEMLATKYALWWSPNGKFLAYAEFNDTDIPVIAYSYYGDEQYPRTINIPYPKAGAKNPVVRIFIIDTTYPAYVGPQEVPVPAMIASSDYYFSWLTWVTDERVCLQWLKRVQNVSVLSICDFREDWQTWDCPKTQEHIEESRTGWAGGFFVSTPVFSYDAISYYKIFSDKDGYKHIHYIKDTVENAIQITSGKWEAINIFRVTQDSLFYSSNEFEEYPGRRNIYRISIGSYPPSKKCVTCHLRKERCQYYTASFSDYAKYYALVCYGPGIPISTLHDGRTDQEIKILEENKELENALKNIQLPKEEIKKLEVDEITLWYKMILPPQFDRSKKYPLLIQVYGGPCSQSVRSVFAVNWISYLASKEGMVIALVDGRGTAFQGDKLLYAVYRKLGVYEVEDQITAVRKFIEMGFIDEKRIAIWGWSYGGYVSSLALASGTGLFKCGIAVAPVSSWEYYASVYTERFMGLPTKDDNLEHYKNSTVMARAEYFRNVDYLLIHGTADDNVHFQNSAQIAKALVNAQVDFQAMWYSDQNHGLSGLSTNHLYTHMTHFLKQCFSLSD

## CCCCCC(=O)N[C@H]1CSC2=C(CC[C@@H](C(=O)N[C@@H](CC(=O)O)C(=O)N[C@@H](CCCCNC(=O)C(CNCCN)CNCCN)C(N)=O)NC(=O)[C@H](Cc3ccccc3)NC(=O)[C@H](CCC(N)=O)NC(=O)[C@H]([C@@H](C)O)NC(=O)[C@@H]3CCCN3C(=O)[C@@H]3CCCN3C1=O)C(=O)NC2=O [Compound 2024, Hex-[Cys(mli)-Pro-Pro-Thr-Gln-Phe-Cys]-Asp-Lys(N4Ac)-NH2] (Hexanoyl-CPPTQF[X2]DK(X3)-NH2; thioether 1-7)
Recombinant human FAP; recombinant human FAP, FRET-peptide substrate, 37° C., read-out: pIC50 Category (Activity) (converted)
  IC50: < 100 nM
[1]; competition with 3 nM Cy5-labeled compound, WI-38 fibroblasts, 4° C., 1 hour, read-out: pIC50 Category (FACS) (converted)
  IC50: < 100 nM

## CCCCCC(=O)N[C@H]1CSC2=C(SC[C@@H](C(=O)N[C@@H](CC(=O)O)C(N)=O)NC(=O)[C@H](Cc3ccccc3)NC(=O)[C@H](CCC(N)=O)NC(=O)[C@H]([C@@H](C)O)NC(=O)[C@@H]3CCCN3C(=O)[C@@H]3CCCN3C1=O)C(=O)N(CCCOCCOCCOCCCNC(=O)C(CNCCN)CNCCN)C2=O [Compound 2026, Hex-[Cys(mli(N4Ac-Ttd))-Pro-Pro-Thr-Gln-Phe-Cys]-Asp-NH2] (HELM PEPTIDE1{[CCCCCC(=O)[*:2]].C.P.P.T.Q.F.C.D.[am]}|CHEM1{[NCCNCC(CNCCN)C(=O)NCCCOCCOCCOCCCN1C(=O)C([*:1])=C([*:2])C1=O]}$PEPTIDE1,CHEM1,2:R3-1:R1|PEPTIDE1,CHEM1,8:R3-1:R2$$$V2.0)
Recombinant human FAP
  IC50: < 100 nM
[1]
  IC50: < 100 nM

Source: patent US20240115745A1, “COMPOUNDS COMPRISING A FIBROBLAST ACTIVATION PROTEIN LIGAND AND USE THEREOF” (3B PHARMACEUTICALS GMBH, priority 2021, published 2024)
